According to ChEMBL document CHEMBL1125994, “Synthesis of 9-[2,2-bis(hydroxymethyl)cycloprop-1-yl]guanine as a potential antiviral agent” (Bioorg Med Chem Lett, 1991):
The source made the active and inactive calls.

How the values were obtained:
Assay type in all cases: functional, cell-based
MRC5 [1] = assay: Compound was tested for antiviral activity against CMV (cytomegalovirus) (AD169) at a concentration of 100 ug/mL in MRC-5 (human fibroblast) cells; IA denotes inactive
MRC5 [2] = assay: Compound was tested for antiviral activity against HSV-1 (SC16 strain)at a concentration of 100 ug/mL in MRC-5 (human fibroblast) cells; IA denotes inactive
MRC5 [3] = assay: Compound was tested for antiviral activity against VZV (Ellen) strain at a concentration of 100 ug/mL in MRC-5 (human fibroblast) cells; IA denotes inactive
MRC5 [4] = assay: Compound was tested for antiviral activity against HSV-2 (MS) strain at a concentration of 100 ug/mL in MRC-5 (human fibroblast) cells; IA denotes inactive

Measured: Antiviral activity

Nc1nc(O)c2ncn(C3CC3(CO)CO)c2n1 (centres undefined)
inactive: all assays above
